Tested on: antibody 2D12.5
Test: competitive immunoassay (ELISA) of metal-DOTA complexes against immobilized Y-DOTA
Type: binding, murine
Conditions: 37° C.; DOTA analog [S]-2-(p-nitrobenzyl)-DOTA
Source text: FIG. 13 is graphical display showing the relative binding of metal-DOTA complexes to antibody 2D12.5. A representative set of competitive binding curves obtained from ELISA experiments described in Example 3 below. Error bars (representing the standard error of the mean) are shown, but are generally smaller than the data points.
Elements plotted in the order Sc (open circle), Lu, Yb, Tm, Er, Ho, Y (open diamond), Dy, Tb, Gd, Eu, Sm, Nd, Pr, Ce, La. ΔΔG values relative to Y-DOTA, set at 0. Error bars represent standard error of the mean.
To determine the metal selectivity of the antibody 2D12.5, a competitive immunoassays was used to measure the binding constants of multiple metal-DOTA complexes relative to Y^3+-DOTA.
We examined the monoclonal antibody 2D12.5, initially developed to bind specifically to Y-DOTA for targeted radiotherapy (see, e.g., Goodwin et al., i Cancer Res. 54: 5937-5946 (1994)), in order to determine the scope of its activity. To assess the metal selectivity of antibody 2D12.5, a competitive immunoassay to measure the binding constants of various metal-DOTA complexes relative to the original Y^3+ complex was developed (FIG. 12). Briefly, 2D12.5 was incubated at 37° C. in the presence of immobilized Y-DOTA and a soluble metal-DOTA competitor. […] Binding was measured by standard methods known to those of skill in the art. […]

O=C([O-])CN1CCN(CC(=O)[O-])CCN(CC(=O)[O-])C(Cc2ccc([N+](=O)[O-])cc2)CN(CC(=O)[O-])CC1.[Tb+3] (stereo not shown) [Tb-DOTA]
binding strength relative to the original Y^3+ complex (in words): strongest binders

— patent US7528235B2, “Multi-functional antibodies” (The Regents of the Univarsity of California, priority 2003, dated 2009)
